Laboratory results: patent US10206394B2, “Herbicidal compounds” (Syngenta Participations AG, priority 2014, dated 2019)
Like-named read-outs stand apart in the source and are kept apart here.

Tests used:
Test in all cases: Glasshouse assay for herbicidal activity (pre- and post-emergence), percentage phytotoxicity
Assay type in all cases: in vivo
[1] = system: Alopecurus myosuroides (ALOMY); settings: Alopecurus myosuroides, Rate 250 g/ha, 100%=total damage, 0%=no damage
In short: (§1)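 Visually rated damage, 0–100%. PRE spray 1 d after sowing, scored 20 DAA; POST spray ~12 d, scored 15 DAA. Glasshouse at 65% humidity, 16 h day.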

[2] = system: Lolium perenne (LOLPE); settings: Lolium perenne, Rate 250 g/ha, 100%=total damage, 0%=no damage
In short: as §1

[3] = system: Avena fatua (AVEFA); settings: Avena fatua, Rate 250 g/ha, 100%=total damage, 0%=no damage
In short: as §1

[4] = system: Echinochloa crus-galli (ECHCG); settings: Echinochloa crus-galli, Rate 250 g/ha, 100%=total damage, 0%=no damage
In short: as §1

[5] = post-emergence, 360 h, post-emergence, visual assessment 15 DAA, read-out: Post-emergence herbicidal activity (percentage phytotoxicity) ALOMY POST
[6] = pre-emergence, 480 h, pre-emergence, visual assessment 20 DAA, read-out: Pre-emergence herbicidal activity (percentage phytotoxicity) ALOMY PRE
[7] = post-emergence, 360 h, post-emergence, visual assessment 15 DAA, read-out: Post-emergence herbicidal activity (percentage phytotoxicity) LOLPE POST
[8] = pre-emergence, 480 h, pre-emergence, visual assessment 20 DAA, read-out: Pre-emergence herbicidal activity (percentage phytotoxicity) LOLPE PRE
[9] = post-emergence, 360 h, post-emergence, visual assessment 15 DAA, read-out: Post-emergence herbicidal activity (percentage phytotoxicity) AVEFA POST
[10] = pre-emergence, 480 h, pre-emergence, visual assessment 20 DAA, read-out: Pre-emergence herbicidal activity (percentage phytotoxicity) AVEFA PRE
[11] = post-emergence, 360 h, post-emergence, visual assessment 15 DAA, read-out: Post-emergence herbicidal activity (percentage phytotoxicity) ECHCG POST
[12] = pre-emergence, 480 h, pre-emergence, visual assessment 20 DAA, read-out: Pre-emergence herbicidal activity (percentage phytotoxicity) ECHCG PRE

SMILES | pest or weed control at 250 g/ha [1, 5] [%] | pest or weed control at 250 g/ha [1, 6] [%] | pest or weed control at 250 g/ha [2, 7] [%] | pest or weed control at 250 g/ha [2, 8] [%] | pest or weed control at 250 g/ha [3, 9] [%] | pest or weed control at 250 g/ha [3, 10] [%] | pest or weed control at 250 g/ha [4, 11] [%] | pest or weed control at 250 g/ha [4, 12] [%]
Cc1cc(-c2ccc(F)cc2)cc(C)c1C1C(=O)CC(CC(=O)NC(C)(C)C#N)C1=O (stereo not shown) [Compound B377] | 90 | 90 | 30 | 80 | 100 | 90 | 90 | 100
Cc1cc(-c2ccc(Cl)cc2)cc(C)c1C1C(=O)CC(CC(=O)NC(C)(C)C#N)C1=O (stereo not shown) [Compound B378] | 80 | 70 | 70 | 80 | 100 | 90 | 100 | 90
CC#Cc1cc(C)c(C2C(=O)CC(CC(=O)NC(C)(C)C#N)C2=O)c(C)c1 (stereo not shown) [Compound B379] | 90 | 90 | 60 | 70 | 90 | 70 | 90 | 70
COc1ccc(CNC(=O)CC2CC(=O)C(c3c(C)cc(-c4ccc(Cl)cn4)cc3C)C2=O)cc1 (stereo not shown) [Compound B380] | 70 | 70 | 90 | 80 | 90 | 80 | 100 | 90
C#Cc1cc(-c2ncc(F)cc2F)cc(C)c1C1C(=O)CC(CC(=O)NC(C)(C)C)C1=O (stereo not shown) [Compound B381, N-tert-butyl-2-[3-[4-(3,5-difluoro-2-pyridyl)-2-ethynyl-6-methyl-phenyl]-2,4-dioxo-cyclopentyl]acetamide] | 100 | 70 | 100 | 90 | 100 | 70 | 100 | 70
C=Cc1cc(-c2ncc(F)cc2F)cc(C)c1C1C(=O)CC(CC(=O)NC(C)(C)C)C1=O (stereo not shown) [Compound B382, N-tert-butyl-2-[3-[4-(3,5-difluoro-2-pyridyl)-2-methyl-6-vinyl-phenyl]-2,4-dioxo-cyclopentyl]acetamide] | 100 | 60 | 100 | 60 | 100 | 40 | 100 | 60
Cc1cc(-c2ccc(F)cn2)cc(C)c1C1C(=O)CC(CC(=O)NCc2cccc(F)c2)C1=O (stereo not shown) [Compound B383] | 100 | 90 | 90 | 100 | 100 | 90 | 90 | 100
Cc1cc(-c2ccc(F)cn2)cc(C)c1C1C(=O)CC(CC(=O)NCc2cccc(Br)c2)C1=O (stereo not shown) [Compound B384] | 90 | 80 | 90 | 80 | 100 | 80 | 40 | 90
Cc1cc(-c2ccc(F)cn2)cc(C)c1C1C(=O)CC(CC(=O)NC(C)C)C1=O (stereo not shown) [Compound B385] | 100 | 100 | 100 | 100 | 100 | 100 | 100 | 100
Cc1cc(-c2ccc(F)cn2)cc(C)c1C1C(=O)CC(CC(=O)NCC2CC2)C1=O (stereo not shown) [Compound B386] | 100 | 100 | 90 | 100 | 100 | 100 | 40 | 100
C#CCNC(=O)CC1CC(=O)C(c2c(C)cc(-c3ccc(F)cn3)cc2C)C1=O (stereo not shown) [Compound B387] | 90 | 90 | 90 | 90 | 100 | 100 | 90 | 100
C#CC(C)(C)NC(=O)CC1CC(=O)C(c2c(C)cc(-c3ccc(F)cn3)cc2C)C1=O (stereo not shown) [Compound B388] | 90 | 90 | 90 | 90 | 100 | 90 | 100 | 100
COCC(C)(C)NC(=O)CC1CC(=O)C(c2c(C)cc(-c3ccc(F)cn3)cc2C)C1=O (stereo not shown) [Compound B389] | 100 | 90 | 90 | 100 | 100 | 90 | 100 | 100
C=CC(C)NC(=O)CC1CC(=O)C(c2c(C)cc(-c3ccc(F)cn3)cc2C)C1=O (stereo not shown) [Compound B390] | 100 | 100 | 90 | 100 | 100 | 100 | 90 | 100
COCC(C)NC(=O)CC1CC(=O)C(c2c(C)cc(-c3ccc(F)cn3)cc2C)C1=O (stereo not shown) [Compound B391] | 90 | 90 | 90 | 100 | 100 | 100 | 100 | 100
CCN(C)C(=O)CC1CC(=O)C(c2c(C)cc(-c3ccc(F)cn3)cc2C)C1=O (stereo not shown) [Compound B392] | 90 | 100 | 90 | 100 | 100 | 100 | 100 | 100
Cc1cc(-c2ccc(F)cn2)cc(C)c1C1C(=O)CC(CC(=O)N(C)C(C)(C)C)C1=O (stereo not shown) [Compound B393] | 90 | 100 | 90 | 100 | 100 | 90 | 100 | 100
C#CCN(C)C(=O)CC1CC(=O)C(c2c(C)cc(-c3ccc(F)cn3)cc2C)C1=O (stereo not shown) [Compound B394] | 100 | 100 | 90 | 100 | 100 | 100 | 100 | 100
C=CCNC(=O)CC1CC(=O)C(c2c(C)cc(-c3ccc(F)cn3)cc2C)C1=O (stereo not shown) [Compound B395] | 100 | 100 | 90 | 100 | 100 | 100 | 100 | 100
Cc1cc(-c2ccc(F)cn2)cc(C)c1C1C(=O)CC(CC(=O)N(C)C(C)C)C1=O (stereo not shown) [Compound B396] | 90 | 100 | 90 | 100 | 100 | 100 | 100 | 100
